Source: US8420605B2, “Hydrogel compositions” (The University of Strathclyde, priority 2005, dated 2013)
Peptide text beside a SMILES is read from it. * marks the point of attachment. Fmoc = O=C(OCC1c2ccccc2-c2ccccc21)*

System: Human mesenchymal stem cells (MSCs)
Experiment: PCR gene expression of cells cultured in gels for 14 days
Assay type: cell-based
Settings: after 14 days
Method: Human mesenchymal stem cells (MSCs) were isolated from bone marrow taken from patients (with both patient and ethical consent) undergoing hip replacement surgery.A HISTOPAQUE (SIGMA-ALDRICH) gradient was used to isolate mononuclear cells and these cells were cultured in monolayer with α-MEM (with 10% heat-inactivated foetal calf serum, 100 U/ml streptomycin/penicillin and 0.85 mM ascorbic acid) under standard culture conditions (humidified atmostphere, 37° C., 5% CO2). After 5 days non-adherent cells were removed by washing with media.
At 80% confluence in passage 3 the MSCs were trypsinised and a cell count was performed. A suitable number of cells were centrifuged at 400 g for 5 minutes and then resuspended in a 10 mM Fmoc-Phe-Phe solution to a final concentration of 4×10^6 cells/ml. The cell suspension was mixed to ensure even cell distribution and 200 μl layers were pipetted into high pore density (0.4 μm pore size) cell culture inserts in 24-well plates. Media (α-MEM as previously described) was added gently to both the well and the insert and gels were allowed to polymerise.
The cell-seeded gels were then cultured under standard conditions for 14 days with media changed every 2 days. Following culture 1 ml of TRIZOL was added to each insert and the gels disrupted by pipetting. A modified RNA extraction procedure was performed combining both the TRIZOL and PURELINK (INVITROGEN) extraction procedures. RNA was reverse transcribed to cDNA using SUPERSCRIPT II (INVITROGEN) and PCR performed using a standard HOTSTARTAQ (QIAGEN) procedure for the house-keeping gene GAPDH as well as the transcription factor SOX-9, aggrecan and collagen types I and II.
PCR products were run on a 1.5% agarose gel containing ethidium bromide and visualised on a UV-transilluminator.

SMILES: O=C(N[C@@H](Cc1ccccc1)C(=O)N[C@@H](Cc1ccccc1)C(=O)O)OCC1c2ccccc2-c2ccccc21 [Entry 1, Fmoc-Phe-Phe-OH] (Fmoc-Phe-Phe-OH)
- cell viability (from gene expression): viable cells present
- expression of GAPDH (10 mM gel): expression
- expression of SOX-9 (10 mM gel): lack of expression
- expression of aggrecan (10 mM gel): lack of expression
- expression of type I collagen (10 mM gel): expression
- expression of type II collagen (10 mM gel): lack of expression
